Data published in patent US10465171B2, “7β-hydroxysteroid dehydrogenases and their use” (PharmaZell GmbH, priority 2009, dated 2019).
Entries after “also recorded” stand apart in the source; their conditions may differ.

Tests used:
[1] = molecular target: 7β-HSDH from Collinsella aerofaciens ATCC 25986 (DSM 3979) (Collinsella aerofaciens, UniProt A4ECA9); test: Photometric identification of 7β-HSDH activity (cell extract of E. coli expressing the candidate); format: biochemical; settings: 0.1 mM test substance, potassium phosphate buffer 50 mM pH 8, in the presence of NADP+ or NADPH
Description: The expression was performed in 50 ml of LB medium. For the preparation of preculture, one colony on an LB agar plate was picked and incubated overnight at 37° C. and 160 Rpm in 5 ml of LB medium (contains relevant antibiotics) a. The 50 ml of LB medium (contains relevant antibiotics) was inoculated with 500 pi of preculture. The culture was incubated at 37° C. and 160 Rpm. Up to OD600 ca. 0.8, expression was induced by addition of 0.5 mM IPTG. After 6 hrs or one night, the cells were centrifuged down. The pellets were resuspended in 6 ml of potassium phosphate buffer (50 mM, pH 8, contains 0.1 mM PMSF) and disintegrated with ultrasound. The cell fragments were removed by centrifugation.
For the identification of 7β-HSDH activity the activity was tested by photometric methods. For this, enzyme and 0.1 mM of test substance (UDCA) in potassium phosphate buffer (50 mM, pH 8) were mixed in a 1 ml cuvette. After addition of NADPH(NADH) or NADP^+ (NAD^+), the degradation or formation of NAD(P)H was measured.

[2] = molecular target: T1, 7β-HSDH from Collinsella aerofaciens DSM 3979 (Collinsella aerofaciens, UniProt A4ECA9); test: Preparative biotransformation of 7-keto-LCA by 7β-HSDH with ADH cofactor regeneration, HPLC analysis; format: biochemical; settings: 0.4 g 7-keto-LCA, 100 U 7β-HSDH, 24° C., 24 hours, pH 8
Description: The conversion of 7-keto-LCA by 7β-HSDH was performed in order to verify the biochemical function of 7β-HSDH. 0.4 g of 7-keto-LCA were suspended in 10 ml of potassium phosphate buffer (50 mM, pH 8) and the pH was adjusted to pH 8 by addition of 2M sodium hydroxide. 0.2 ml of isopropanol, 100 U of 7β-HSDH and 80 U of alcohol dehydrogenase (ADH-TE) from Thermoanaerobacter ethanolicus (kindly donated by Dr. K. Momoi, ITB University, Stuttgart) and 1 μmol NADP^+ were added. The same buffer was added, so as to obtain a total reaction volume of 20 ml. The reaction mixture was incubated at 24° C. and stirred for 24 hours. During this, NADPH was regenerated by means of ADH via the oxidation of 2-propanol. […]
An HPLC analysis was performed on a column of the Purospher® STAR RP-18 type (Hitbar® RT 125-4 Pre-Packed Column, Purospher® STAR RP-18 endcapped, Merck, Germany), equipped with a precolumn of the LiChroCART® STAR RP18 type (endcapped, Merck, Germany) on an LC20AD HPLC system (Shimadzu, Japan) at a flow rate of 1 ml/min. […] 20 μl sample (1 mg/ml) were analyzed. […]
To confirm the function of the enzyme, a biotransformation of 7-keto-LCA on the […] was performed, wherein the isolated enzyme was used in combination with ADH for the regeneration of NADPH with the use of 2-propanol, as already described. […] CDCA (retention time 19.4 min) was not detected in the reaction mixture.

[3] = molecular target: T1, 7β-HSDH from Collinsella aerofaciens DSM 3979; format: biochemical
[4] = test system: 7β-HSDH enzyme from C. aerofaciens ATCC25986 described by Hirano et al; parameters: unit not given here; settings: enzyme of Hirano et al; cited from earlier work

T1 sequence (A4ECA9 whole entry): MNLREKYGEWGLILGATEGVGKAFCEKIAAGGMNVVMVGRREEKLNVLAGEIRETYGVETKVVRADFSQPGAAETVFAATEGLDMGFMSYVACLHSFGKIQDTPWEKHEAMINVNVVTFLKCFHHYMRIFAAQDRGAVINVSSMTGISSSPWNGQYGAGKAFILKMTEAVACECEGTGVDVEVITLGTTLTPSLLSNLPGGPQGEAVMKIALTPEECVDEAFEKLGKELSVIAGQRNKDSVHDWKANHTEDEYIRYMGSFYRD
Chain of 7β-HSDH from Collinsella aerofaciens ATCC 25986 (DSM 3979) (A4ECA9 whole entry): as above

| Compound | activity [1] | kcat [3] | other results |
| --- | --- | --- | --- |
| C[C@H](CCC(=O)O)[C@H]1CC[C@H]2[C@@H]3C(=O)C[C@@H]4C[C@H](O)CC[C@]4(C)[C@H]3CC[C@]12C [7-keto-LCA, 7-keto-lithocholic acid] | 35 U/ml | – | conversion to UDCA [2]: 90% |
| C[C@H](CCC(=O)O)[C@H]1CC[C@H]2[C@@H]3[C@H](O)C[C@@H]4C[C@H](O)CC[C@]4(C)[C@H]3C[C@H](O)[C@]12C [CA, Cholic acid] | no activity; also recorded: not detectable | – | – |
| C[C@H](CCC(=O)O)[C@H]1CC[C@H]2[C@@H]3C(=O)C[C@@H]4CC(=O)CC[C@]4(C)[C@H]3CC(=O)[C@]12C [DHCA, Dehydrocholic acid] | 119 U/ml | – | – |
| NC(=O)C1=CN([C@@H]2O[C@H](COP(=O)(O)OP(=O)(O)OC[C@H]3O[C@@H](n4cnc5c(N)ncnc54)[C@H](O)[C@@H]3O)[C@@H](O)[C@H]2O)C=CC1 [NADH] | – | traces | activity as coenzyme [3]: very low activity |
| NC(=O)c1ccc[n+]([C@@H]2O[C@H](COP(=O)([O-])OP(=O)(O)OC[C@H]3O[C@@H](n4cnc5c(N)ncnc54)[C@H](OP(=O)(O)O)[C@@H]3O)[C@@H](O)[C@H]2O)c1 [NADP^+] | – | – | Vmax [3]: 30.58 U/mg protein; Vmax [4]: 0.2 |
| NC(=O)c1ccc[n+]([C@@H]2O[C@H](COP(=O)([O-])OP(=O)(O)OC[C@H]3O[C@@H](n4cnc5c(N)ncnc54)[C@H](O)[C@@H]3O)[C@@H](O)[C@H]2O)c1 [NAD^+] | – | traces | activity as coenzyme [3]: very low activity |
| C[C@H](CCC(=O)O)[C@H]1CC[C@H]2[C@@H]3[C@@H](O)C[C@@H]4C[C@H](O)CC[C@]4(C)[C@H]3CC[C@]12C [UDCA, Ursodeoxycholic acid] | 60 U/ml | – | – |
| NADPH | – | 1033.44 1 μmol/(μmol × min) | Vmax [3]: 33.44 U/mg protein |
